# Values of other authors, collected in patent US6642211B2 (Wisconsin Alumni Research Foundation, priority 2001, dated 2003).
# Legend:
# [1] = system: high grade gliomas and malignant melanoma
# [2] = system: neoplastic cells
# [3] = system: human tumor xenografts, including malignant glioma; conditions: wide variety of human tumor xenografts
# [4] = system: leukemia
# [5] = system: recurrent malignant glioma
# [6] = prolonged infusions of up to 30 days, patients with leukemia
Compound,"dose-limiting toxicity ([1]; human, in vivo)",clinical efficacy ([1]; treatment of high grade gliomas and malignant melanoma),cell killing in vitro [2],tumor regression [3],"anti-cancer activity [4, 6]","myelotoxicity [4, 6]",efficacy ([4]; shorter infusions of high dose thymidine),protection against carboplatin myelotoxicity ([5]; Phase I),effect on pharmacokinetics or protein binding of carboplatin ([5]; thymidine-carboplatin interaction)
Cn1nnc2c(C(N)=O)ncn2c1=O [Temozolamide],related to myelosuppression,demonstrated clinical efficacy,,,,,,,
Cc1cn([C@H]2C[C@H](O)[C@@H](CO)O2)c(=O)[nH]c1=O [Thymidine],,,preferentially kills neoplastic cells,induces partial regression,anti-cancer activity,significant myelotoxicity,effective,protect against dose-limiting carboplatin myelotoxicity,not to affect
